# Data reported in patent publication US9315458B2, “Nitrogen-containing heterocyclic compound” (Takeda Pharmaceutical Company Limited, priority 2014, dated 2016).
# What was measured:
# [1] = tested on: Scopolamine-induced memory deficits models; assay: Novel object recognition test; assay type: in vivo, male Long-Evans rats; conditions: scopolamine 0.1 mg/kg s.c., mean±standard error
# Experimental: Novel object recognition test is comprised of two trials called the acquisition and the retention trials. Scopolamine-induced memory deficits models were used for the test, and animals used were male Long-Evans rats (7-week-old). On the day before the test, for acclimation, the rats were allowed to freely move about the test box (40×40×50 cm) for 10 minutes. On the test day, the rats were acclimated to the test room for about 1 hr prior to the test. The test compounds were orally administered to the rats in a single dose 2 hr before the acquisition trial. For induction of learning and memory deficits, scopolamine (0.1 mg/kg) was subcutaneously administered into the rats 30 min before the acquisition trial. For the acquisition trial, two identical objects (A1, A2) were placed in the test box. The rats were put in the test box for 3 min, and the duration exploring each object was measured. The retention trial was performed 4 hr after the acquisition trial. For the retention trial, the familiar object (A3) used for the acquisition trial and the novel object (B) different shape from A3 were placed in the test box. The rats were put in the test box for 3 min. The duration exploring each object in the acquisition trial and the retention trial, and the exploration rate (%) of novel object was calculated. The exploration rate (%) of novel object was expressed as (the duration exploring the novel object)/[(the duration exploring the novel object)+(the duration exploring the familiar object)]×100(%) at mean±standard error.
# [2] = tested on: IP1 production in hippocampi; assay: Measurement of myo-inositol 1 phosphate (IP1) in hippocampus after oral administration; assay type: in vivo, male Long-Evans rats; conditions: 10 mg/kg oral, rat hippocampus, IP1/protein ratio, lithium chloride s.c.
# Excerpt: Animals used were male Long-Evans rats. They were used after acclimation for at least 1 week. Test compounds were suspended in 0.5% aqueous methylcellulose solution, and the suspension was orally administered to the rats. At a certain period of time after the oral administration, the solution prepared by dissolving lithium chloride in saline was subcutaneously administered into the rats. At a certain period of time after the subcutaneously administration, their bilateral hippocampi were isolated from the rats, and the wet weight thereof was measured. The hippocampi were homogenized with HEPES buffer, followed by centrifugation. The IP1 and protein concentrations in the supernatant were measured by IP-One HTRF assay kit (Cisbio Bioassays) and BCA protein assay kit (Thermo Scientific), respectively. The level of the IP1 production was expressed as the ratio of the concentration of IP1 to that of protein. The increase rate of the IP1 production was shown as a relative value when Vehicle administration group as 100%.
# [3] = biological target: T1, human M1 receptor (hCHRM1) (Homo sapiens, UniProt P11229); assay: Measurement of M1 receptor positive allosteric modulator (M1PAM) activity, calcium fluorescence (FLIPRtetra) with acetylcholine at EC20; assay type: cell-based; conditions: for activity (%) at 10 μM: 10 μM test compound, 100% = acetylcholine 1 μM, 0% = DMSO, acetylcholine at EC20; for EC50: inflection point of concentration-dependent curve, CHO-K1 cells expressing hCHRM1, acetylcholine at EC20 (final 0.6-0.8 nM), read-out: IP value
# T1 construct: expressed in transfected cells
# T1 sequence (P11229 1-460): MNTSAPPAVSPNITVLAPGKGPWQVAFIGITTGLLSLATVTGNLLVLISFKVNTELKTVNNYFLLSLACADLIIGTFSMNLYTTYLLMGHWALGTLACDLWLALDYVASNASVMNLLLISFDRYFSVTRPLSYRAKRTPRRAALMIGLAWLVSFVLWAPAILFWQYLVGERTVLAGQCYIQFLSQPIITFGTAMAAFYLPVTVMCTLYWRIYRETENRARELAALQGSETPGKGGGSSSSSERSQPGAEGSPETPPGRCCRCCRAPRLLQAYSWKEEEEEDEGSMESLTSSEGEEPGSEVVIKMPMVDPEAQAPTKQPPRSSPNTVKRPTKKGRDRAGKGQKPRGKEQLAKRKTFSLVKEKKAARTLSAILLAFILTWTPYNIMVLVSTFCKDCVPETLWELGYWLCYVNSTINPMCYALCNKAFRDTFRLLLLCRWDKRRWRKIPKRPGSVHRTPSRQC
# How it was run: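 CHO-K1 cells stably expressing hCHRM1, Fluo-4 AM loaded; compound added with acetylcholine at EC20 (final 0.6-0.8 nM), fluorescence read 1 min. Activity normalised to 1 μM acetylcholine (100%) and DMSO (0%); IP values taken as inflection point of the concentration-response curve.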
activity (%) at 10 μM [3],EC50 [3],Compound,"exploration rate (%) of novel object ([1]; 3 mg/kg oral 2 hr before acquisition trial, control 63.35±1.59%, solvent-scopolamine 52.08±2.47%)",increase rate at 10 mg/kg (% of Vehicle) [2],"exploration rate (%) of novel object ([1]; 3 mg/kg oral 2 hr before acquisition trial, control 66.4±2.3%, solvent-scopolamine 50.4±2.4%)","exploration rate (%) of novel object ([1]; 10 mg/kg oral 2 hr before acquisition trial, control 62.37±3.24%, solvent-scopolamine 48.39±2.01%)"
88%,10 nM,"COc1ccc(Cc2cc3c(c(C)c2C)CN([C@H]2COCC[C@@H]2O)C3=O)cc1 [Example 18, 2-[(3S,4S)-4-hydroxytetrahydro-2H-pyran-3-yl]-6-(4-methoxybenzyl)-4,5-dimethyl-2,3-dihydro-1H-isoindol-1-one]",59.11±3.87%,40 % of Vehicle,–,–
109%,5.5 nM,"Cc1c(Cc2ccc(-n3cccn3)cc2)cc2c(c1F)CN([C@H]1COCC[C@@H]1O)C2=O [Example 20, 4-fluoro-2-[(3S,4S)-4-hydroxytetrahydro-2H-pyran-3-yl]-5-methyl-6-[4-(1H-pyrazol-1-yl)benzyl]-2,3-dihydro-1H-isoindol-1-one]",–,108 % of Vehicle,61.2±3.1%,–
90%,10 nM,"Cc1ccc(Cc2cc3c(c(C)c2C)CN([C@H]2CCCC[C@@H]2O)C3=O)cn1 [Example 25, 2-((1S,2S)-2-hydroxycyclohexyl)-4,5-dimethyl-6-((6-methylpyridin-3-yl)methyl)isoindolin-1-one]",–,32 % of Vehicle,–,57.55±5.03%
